Experimental findings from PubChem BioAssay (NCI) are described below.

Among the test systems are 786-0 renal; A549 NSCLC; MDA-MB-435; MOLT-4 leukemia; NCI-H460 lung; OVCAR-4 ovarian; PC-3 prostate; SF-539 CNS; SK-MEL-28 melanoma; SK-OV-3 ovarian.
Holding throughout (assay): NCI tumour cell line growth inhibition, 48 h

Structures are written as SMILES. “And” between values parts separate entries of the source, which are not always exact repeats. Equal values may be shown once.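 Cells were grown in 96-well plates and exposed to each compound for 48 hours at five concentrations; endpoints were interpolated linearly between bracketing concentrations, or set to the highest concentration if not reached. Here, GI50 denotes the concentration required for 50% inhibition of growth. At the TGI there is no net growth.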 Where only a bound is given, the exact number is not on record here.

Take `COc1ccc(N=N/C(=N\NC(=O)c2cc(Br)ccc2O)c2ccc(N(CCC#N)CCC#N)cc2OC)cc1`: the GI50 with 786-0 renal was 64.6 µg/mL; in the test with A549 NSCLC it was 77.1 µg/mL; in the test on MDA-MB-435, over 150 µg/mL; with MOLT-4 leukemia, 52 µg/mL; in the test with NCI-H460 lung, 33.5 µg/mL; with OVCAR-4 ovarian, 28.5 µg/mL. The GI50 was 57.6 µg/mL in the test on PC-3 prostate, 80.8 µg/mL in the test on SF-539 CNS, over 150 µg/mL in the test with SK-MEL-28 melanoma and 80.6 µg/mL with SK-OV-3 ovarian. For the same compound, the TGI in the test on 786-0 renal was over 150 µg/mL; in the test on A549 NSCLC, over 150 µg/mL; in the test on MDA-MB-435, over 150 µg/mL; with MOLT-4 leukemia, over 150 µg/mL; with NCI-H460 lung, 109 µg/mL; in the test with OVCAR-4 ovarian, 76 µg/mL. The TGI in the test with PC-3 prostate, in the test with SF-539 CNS, in the test with SK-MEL-28 melanoma and in the test with SK-OV-3 ovarian was over 150 µg/mL in each case.
Consider `O=C(COc1cccc(/C=C2\COc3ccccc3C2=O)c1)c1ccccc1`, for which the GI50 in the test with 786-0 renal was 5.85 µM; with A549 NSCLC it was 15.7 µM; in the test on MDA-MB-435, 3.14 µM; in the test with MOLT-4 leukemia, 3.26 µM; with NCI-H460 lung it was 12.3 µM; in the test on OVCAR-4 ovarian it was 3.84 µM. Moreover, the GI50 with PC-3 prostate was 2.11 µM; in the test on SF-539 CNS it was 15.6 µM; in the test with SK-MEL-28 melanoma it was 3.24 µM; with SK-OV-3 ovarian it was 15.2 µM. Besides, the TGI in the test on 786-0 renal stood at 19 µM; in the test on A549 NSCLC it was 49.7 µM; in the test with MDA-MB-435, 10.7 µM; in the test on MOLT-4 leukemia, 11.1 µM; in the test with NCI-H460 lung, 24.9 µM; in the test on OVCAR-4 ovarian, 15.4 µM. Further, the TGI in the test with PC-3 prostate amounted to 5.16 µM; with SF-539 CNS, 29 µM; in the test on SK-MEL-28 melanoma, 10.7 µM; in the test with SK-OV-3 ovarian, 29 µM.
With `CON=C1C[C@]2(C[C@@H]3C[C@@H](C/C=C(\C)C[C@@H](C)/C=C/C=C4\CO[C@@H]5[C@H](O)C(C)=C[C@@H](C(=O)O3)[C@]45O)O2)O[C@H](/C(C)=C/C(C)C)[C@H]1C`, the GI50 with 786-0 renal is 14.2 µM; in the test with A549 NSCLC it was 13.8 µM; in the test with MDA-MB-435 it was 7.98 µM; in the test on MOLT-4 leukemia it was 3.02 µM; in the test on NCI-H460 lung, 13.1 µM; in the test with OVCAR-4 ovarian, 16 µM. The GI50 with PC-3 prostate is 2.63 µM; in the test with SF-539 CNS it was 20.4 µM; with SK-MEL-28 melanoma it was 17.5 µM; in the test with SK-OV-3 ovarian, 15.2 µM. Also, the TGI with 786-0 renal turned out to be 28.4 µM; with A549 NSCLC, 29.1 µM; with MDA-MB-435, 21.5 µM; in the test on MOLT-4 leukemia, 8.53 µM; with NCI-H460 lung it was 30.3 µM; in the test on OVCAR-4 ovarian, 29.7 µM. The TGI stood at 11.2 µM in the test with PC-3 prostate, 36.9 µM in the test with SF-539 CNS, 31.7 µM in the test on SK-MEL-28 melanoma and 28.5 µM in the test with SK-OV-3 ovarian.
Regarding `COc1cc(N2CCN(C(C)C)CC2)ccc1Nc1nc(Nc2ccc(F)cc2C(=O)NCC(O)CO)c2cc[nH]c2n1` (stereo unspecified), the GI50 with 786-0 renal was over 23.3 µM; in the test with A549 NSCLC, 5.76 µM; in the test on MDA-MB-435, 4.99 µM; in the test on MOLT-4 leukemia, 8.68 µM; with NCI-H460 lung, 6.05 µM; with OVCAR-4 ovarian it was over 25 µM. For the same compound, the GI50 with PC-3 prostate is over 25 µM; with SF-539 CNS, 5.13 µM; in the test with SK-MEL-28 melanoma it was over 25 µM; in the test on SK-OV-3 ovarian, 6.85 µM. Also, the TGI is over 25 µM in the test with 786-0 renal; over 25 µM in the test on A549 NSCLC; over 25 µM in the test on MDA-MB-435; over 25 µM in the test with MOLT-4 leukemia; 19.4 µM in the test with NCI-H460 lung; over 25 µM with OVCAR-4 ovarian. Further, the TGI in the test on PC-3 prostate, in the test on SF-539 CNS, in the test with SK-MEL-28 melanoma and with SK-OV-3 ovarian was over 25 µM throughout.
`[N-]=[N+]=NCCCn1c2c(c3ccc([N+](=O)[O-])cc3c1=O)C(=O)c1cc(I)ccc1-2`: the GI50 with 786-0 renal was 3.17 µM; in the test on A549 NSCLC, 8.06 µM; in the test with MDA-MB-435 it was 34.3 µM; in the test on MOLT-4 leukemia it was 0.833 µM; in the test on NCI-H460 lung it was 0.449 µM; in the test on OVCAR-4 ovarian it was 60 µM. The GI50 was 11 µM with PC-3 prostate, 2.23 µM with SF-539 CNS, 41.5 µM in the test on SK-MEL-28 melanoma and 2.11 µM in the test on SK-OV-3 ovarian. The TGI is 16 µM in the test on 786-0 renal; over 100 µM with A549 NSCLC; over 100 µM in the test with MDA-MB-435; 5.08 µM in the test on MOLT-4 leukemia; 11.6 µM in the test with NCI-H460 lung; over 100 µM in the test with OVCAR-4 ovarian. Also, the TGI is over 100 µM with PC-3 prostate, 8.51 µM in the test with SF-539 CNS, over 100 µM with SK-MEL-28 melanoma and 8.74 µM in the test with SK-OV-3 ovarian.
For the compound `C=C[C@H]1CN2CCc3c([nH]c4c([C@@H]5CCCN5C)c(O)ccc34)[C@@H]2C[C@@H]1C[C@H]1c2[nH]c3ccccc3c2CCN1C`, the GI50 in the test with 786-0 renal was 1.63 µM; in the test on MDA-MB-435, 1.71 µM; with MOLT-4 leukemia, 0.412 µM; in the test with SF-539 CNS it was 0.197 µM; with SK-OV-3 ovarian it was 2.03 µM. Moreover, the TGI in the test with 786-0 renal was 3.15 µM and 2.83 µM; with A549 NSCLC, 3.12 µM and 3.13 µM; in the test on MDA-MB-435, 2.99 µM and 2.95 µM and 3.15 µM; with NCI-H460 lung, 3.1 µM and 2.99 µM; in the test with OVCAR-4 ovarian, 3.2 µM; in the test on PC-3 prostate, 3.05 µM and 2.88 µM. Also, the TGI is 3.14 µM and 0.41 µM and 3.09 µM in the test with SF-539 CNS; 2.98 µM and 3.3 µM with SK-MEL-28 melanoma; 3.23 µM [middle of 4 runs] in the test with SK-OV-3 ovarian.
For `CC1NC(C(=O)O)Cc2cc(O)c(O)cc21` (stereo unspecified), the TGI in the test with 786-0 renal, in the test on A549 NSCLC, in the test with MDA-MB-435, in the test on MOLT-4 leukemia, in the test with NCI-H460 lung and with OVCAR-4 ovarian was over 100 µM throughout. For the same compound, the TGI with PC-3 prostate, in the test on SF-539 CNS, in the test on SK-MEL-28 melanoma and in the test on SK-OV-3 ovarian was over 100 µM in each case.
In the case of `COc1ccc(NC(=S)C#N)cc1`, the TGI in the test with 786-0 renal, with A549 NSCLC, with MDA-MB-435, in the test on PC-3 prostate, in the test with SF-539 CNS and in the test on SK-MEL-28 melanoma was over 100 µM throughout. Further, the TGI with SK-OV-3 ovarian was over 100 µM.
